The values that follow come from PubChem BioAssay AID1963849 (Molecular Pharmacology Branch, DTP, NCI, 2024).

The assay relates to 299254-011-R-J1-PDC complex spheroid viability. The experiment in a line: Anticancer human tumor 299254-011-R-J1-PDC patient-derived melanoma cell line growth inhibition [POLQ]. The note with it: for viability, T/C: stronger effect = lower value. On the procedure: Multicellular complex tumor spheroid response to Polymerase (POL) inhibitors (novobiocin, ART-558, RP6685) in combination with a variety of drugs and investigational agents in selected tumor cell lines
The POL inhibitors (novobiocin, ART-558, and RP6685) were evaluated both individually and in combination with standard of care and investigational anticancer small molecules within a complex spheroid model of solid tumors. . Complex spheroids include a stromal component modeled by human endothelial cells (HUVEC) and fibroblasts modeled by human mesenchymal stem cells (MSCs). The concentration ranges selected for each drug and investigational agent were based upon clinically achievable concentrations if the clinical Cmax of the agent was known.
Compounds. The drugs and investigational agents: novobiocin (NSC847541), ART-558 (NSC835418), RP-6685 (NSC848927), peposertib (NSC802822), ceralasertib (NSC780249), elimusertib (NSC800525), camonsertib (NSC841442), AZD-1390 (NSC803789), olaparib (NSC753686), talazoparib (NSC767125), rucaparib (NSC756644), sotorasib (NSC818433), MRTX-1133 (NSC836407), SN-38 (NSC673596), topotecan (NSC609699), epotoside (NSC141540), doxorubicin (NSC123127), gemcitabine (NSC613327), 5-fluorouracil (NSC19893), paclitaxel (NSC125973), vemurafenib (NSC761431), MSA-2 (NSC828583), SN-011 (NSC837082), adavosertib (NSC754352), prexasertib (NSC758257), carboplatin (NSC241240) and oxaliplatin (NSC266046), were obtained from the National Cancer Institute (NCI) Developmental Therapeutics Program Chemical Repository (21). The FDA-approved anticancer drug set is available from the Developmental Therapeutics Program at https://dtp.cancer.gov/organization/dscb/obtaining/. […] The stock solutions were prepared in dimethyl sulfoxide (DMSO, Sigma-Aldrich, St. Louis, MO, cat. D2650), except for the platinum compounds which were prepared in saline (Quality Biological, Gaithersburg, MD, cat. 114-055-101), at 800-fold the tested concentration and stored at -70 degrees C prior to their use. All drugs and investigational agents were tested over a range starting from a high concentration at or near the clinical Cmax and decreasing in half-log increments. If the clinical Cmax for an agent had not been determined, the highest concentration tested was 10 microM, except for SN-38, which was tested at a high concentration of 1 microM.
Cell Culture. All cells were maintained in an incubator at 37 degrees C and 5% CO2 with 95% humidity. The PDC lines were cultured according to standard operating procedures established by the NCI PDMR (https://pdmr.cancer.gov). Table 3 of the manuscript, lists the cell lines along with the number of the three cell types plated to form the mct-spheroids and media for tumor cell growth. After thawing, all PDC lines, except 997537-175-T-J1-PDC and 415267-285-R-J2-PDC, were cultured in Matrigel-coated flasks prepared with a working solution of 1X Ham's F-12 nutrient mix, without supplementation (Thermo Fisher Scientific, cat. 11765054), 100 U/mL penicillin-streptomycin (Thermo Fisher Scientific, cat. 15140122), and 2.5% Matrigel (Corning Inc., Corning, NY, cat. 354248) for the first three passages. The two PDC lines 997537-175-T-J1-PDC and 415267-285-R-J2-PDC were cultured on uncoated flasks. The 857933-349-R-J2-PDC line was cultured in 6C/Colon 1B media containing advanced DMEM/F-12 (Thermo Fisher Scientific, cat. 12634028), 10 mM HEPES (Thermo Fisher Scientific, cat. 15630080), 1X GlutaMAX supplement (Thermo Fisher Scientific, cat. 35050061), 0.1 mg/mL primocin (InvivoGen, San Diego, CA, cat. ant-pm-2), 10% defined fetal bovine serum, heat inactivated (HyClone Laboratories Inc., Logan, UT, cat. SH30070.03HI), 50% L-WRN conditioned media (ATCC, cat. CRL-3276), 1.25 mM N-Acetyl-L-cysteine (Sigma-Aldrich, cat. A9165), 10 mM nicotinamide (Sigma-Aldrich, cat. N0636), 1X B-27 supplement (Thermo Fisher Scientific, cat. 17504044), 1X N-2 supplement (Thermo Fisher Scientific, cat. […]

Where [1] appears, read: curve of first compound, second compound 0.0316 µM.
Where [2] appears, read: curve of first compound, second compound 0.1 µM.
Where [3] appears, read: curve of first compound, second compound 0.316 µM.
Setting [4] is: curve of first compound, second compound 1 µM.
[5] abbreviates: curve of first compound, second compound 3.16 µM.
Setting [6] is: curve of first compound, second compound 10 µM.
[7] abbreviates: second compound 0.0316 µM, first compound 0.0316 µM.
Where [8] appears, read: second compound 0.0316 µM, first compound 0.1 µM.
Where [9] appears, read: second compound 0.0316 µM, first compound 0.316 µM.
Setting [10] is: second compound 0.0316 µM, first compound 1 µM.
Where [11] appears, read: second compound 0.0316 µM, first compound 3.16 µM.
The mark [12] stands for this setting: second compound 0.0316 µM, first compound 10 µM.
Setting [13] is: second compound 0.1 µM, first compound 0.0316 µM.
Where [14] appears, read: second compound 0.1 µM, first compound 0.1 µM.
Setting [15] is: second compound 0.1 µM, first compound 0.316 µM.
The mark [16] stands for this setting: second compound 0.1 µM, first compound 1 µM.
The mark [17] stands for this setting: second compound 0.1 µM, first compound 3.16 µM.
Setting [18] is: second compound 0.1 µM, first compound 10 µM.
Setting [19] is: second compound 0.316 µM, first compound 0.0316 µM.
Setting [20] is: second compound 0.316 µM, first compound 0.1 µM.
Where [21] appears, read: second compound 0.316 µM, first compound 0.316 µM.
[22] abbreviates: second compound 0.316 µM, first compound 1 µM.
The mark [23] stands for this setting: second compound 0.316 µM, first compound 3.16 µM.
The mark [24] stands for this setting: second compound 0.316 µM, first compound 10 µM.
[25] abbreviates: second compound 1 µM, first compound 0.0316 µM.
Setting [26] is: second compound 1 µM, first compound 0.1 µM.
The mark [27] stands for this setting: second compound 1 µM, first compound 0.316 µM.
[28] abbreviates: second compound 1 µM, first compound 1 µM.
Setting [29] is: second compound 1 µM, first compound 3.16 µM.
[30] abbreviates: second compound 1 µM, first compound 10 µM.
[31] abbreviates: second compound 3.16 µM, first compound 0.0316 µM.
Where [32] appears, read: second compound 3.16 µM, first compound 0.1 µM.
[33] abbreviates: second compound 3.16 µM, first compound 0.316 µM.
Setting [34] is: second compound 3.16 µM, first compound 1 µM.
Where [35] appears, read: second compound 3.16 µM, first compound 3.16 µM.
[36] abbreviates: second compound 3.16 µM, first compound 10 µM.
The mark [37] stands for this setting: second compound 10 µM, first compound 0.0316 µM.
The mark [38] stands for this setting: second compound 10 µM, first compound 0.1 µM.
[39] abbreviates: second compound 10 µM, first compound 0.316 µM.
Where [40] appears, read: second compound 10 µM, first compound 1 µM.
The mark [41] stands for this setting: second compound 10 µM, first compound 3.16 µM.
Where [42] appears, read: second compound 10 µM, first compound 10 µM.

Values joined by “and” are separate entries in the source; they are usually repeats but may differ in a detail not shown here. Equal entries are not always repeated.

By IC50 is commonly meant the concentration at which inhibition is half-maximal. As a reminder, the viability, T/C is the result in the treated group divided by that in the control group, in per cent.
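Note: spheroids exposed to drugs for one week before measurement.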
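Throughout, for viability, T/C: percent viability relative to DMSO vehicle control taken as 100%.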

Take `CC1COCCN1c1cc(-c2ccnn2C)c2ccnc(-c3ccn[nH]3)c2n1` (stereo not given) + Cc1cccc(N(C)C(=O)C2C(O)CCN2c2nc(C)cc(C(F)(F)F)c2C#N)c1: the IC50 is, setting by setting: under setting [1], 0.246 µM; under setting [2], 0.217 µM; under setting [3], 0.297 µM; under setting [4], 0.221 µM; under setting [5], 0.158 µM; under setting [6], 0.153 µM. Besides, the viability, T/C is, setting by setting: under setting [7], 95.1%; under setting [8], 73.4%; under setting [9], 42.1%; under setting [10], 31.5%; under setting [11], 27.3%; under setting [12], 22.5%. The viability, T/C under setting [13] is 77.4%; the viability, T/C under setting [14] is 77.2%; the viability, T/C under setting [15] was 36.9%; the viability, T/C under setting [16] is 30.4%; the viability, T/C under setting [17] was 20.2%; the viability, T/C under setting [18] is 19%. Further, the viability, T/C reads like this: under setting [19], 104%; under setting [20], 73.5%; under setting [21], 48.6%; under setting [22], 30.8%; under setting [23], 23.6%; under setting [24], 14.6%. Moreover, the viability, T/C under setting [25] was 111%; the viability, T/C under setting [26] was 73.1%; the viability, T/C under setting [27] was 38.2%; the viability, T/C under setting [28] is 28.2%; the viability, T/C under setting [29] was 22.1%; the viability, T/C under setting [30] is 19%. The viability, T/C runs as follows: under setting [31], 82.8%; under setting [32], 59.1%; under setting [33], 36.5%; under setting [34], 24.6%; under setting [35], 24.7%; under setting [36], 20.1%. The viability, T/C runs as follows: under setting [37], 76.4%; under setting [38], 59.1%; under setting [39], 34%; under setting [40], 29%; under setting [41], 20.7%; under setting [42], 19.4%.

As for `Nc1ccc(C#CCN(C(=O)Cc2ncc(C(F)(F)F)cc2C(F)(F)F)c2ccc(F)cc2)nn1`, the viability, T/C reads like this: (compound 0.0316 µM) 102% [middle of 13 runs]; (compound 0.1 µM) 104% [middle of 13 runs]; (compound 0.316 µM) 102% [middle of 13 runs]; (compound 1 µM) 96.5% [middle of 13 runs]; (compound 3.16 µM) 96.5% [middle of 13 runs]; (compound 10 µM) 95.6% [middle of 13 runs]. Further, for the setting “compound alone, run of 12/05/2023”, the IC50 is above 10 µM.

In the case of `COc1ccc([C@@H](O)c2cc(-c3ncnc4cc(N5CCOCC5)ccc34)c(F)cc2Cl)nn1`, the viability, T/C runs as follows: (compound 0.0316 µM) 106% and 102% and 92.9%; (compound 0.1 µM) 86.3% and 91.9% and 94.6%; (compound 0.316 µM) 106% and 96.2% and 105%; (compound 1 µM) 94% and 100% and 99%; (compound 3.16 µM) 92.6% and 84.1% and 88.5%; (compound 10 µM) 49.3% and 50% and 43.6%. The IC50 (curve of compound) was 9.87 µM and > 10 µM and 8.57 µM.

Turning to `CC1COCCN1c1cc(C2(O)CC3CCC(C2)O3)c2cnn(-c3ccn[nH]3)c2n1` (stereo not given), the viability, T/C (compound 0.0316 µM) was 84.1% and 85.2% and 80.8%; the viability, T/C (compound 0.1 µM) is 66.5% and 64.7% and 57.4%; the viability, T/C (compound 0.316 µM) was 34.4% and 36.9% and 39.6%; the viability, T/C (compound 1 µM) was 26.3% and 17.9% and 25.1%; the viability, T/C (compound 3.16 µM) was 14.4% and 15.1% and 20.3%; the viability, T/C (compound 10 µM) is 8.87% and 10.7% and 12.4%. Also, the IC50 (curve of compound) was 0.19 µM and 0.182 µM and 0.159 µM.

With `CC(C)n1c(=O)n(C)c2cnc3cc(F)c(-c4ccc(OCCCN5CCCCC5)nc4)cc3c21` + Cc1cccc(N(C)C(=O)C2C(O)CCN2c2nc(C)cc(C(F)(F)F)c2C#N)c1, the concentration for half-maximal inhibition (IC50) is, setting by setting: under setting [1], above 10 µM; under setting [2], above 10 µM; under setting [3], above 10 µM; under setting [4], above 10 µM; under setting [5], above 10 µM; under setting [6], above 10 µM. Further, the viability, T/C is, setting by setting: under setting [7], 98.6%; under setting [8], 102%; under setting [9], 84.6%; under setting [10], 90.1%; under setting [11], 102%; under setting [12], 68.2%. Further, the viability, T/C is 96.2% under setting [13]; 92.9% under setting [14]; 90.4% under setting [15]; 90.1% under setting [16]; 97% under setting [17]; 81.2% under setting [18]. Also, the viability, T/C was 93.9% under setting [19]; 98.8% under setting [20]; 89.2% under setting [21]; 88.9% under setting [22]; 94.1% under setting [23]; 76.3% under setting [24]. Further, the viability, T/C was 92.5% under setting [25]; 96.5% under setting [26]; 89.1% under setting [27]; 98.8% under setting [28]; 93.5% under setting [29]; 67.6% under setting [30]. Moreover, the viability, T/C under setting [31] was 113%; the viability, T/C under setting [32] is 119%; the viability, T/C under setting [33] is 90.3%; the viability, T/C under setting [34] is 95.3%; the viability, T/C under setting [35] is 90.4%; the viability, T/C under setting [36] was 64.1%. The viability, T/C by setting is: under setting [37], 87.9%; under setting [38], 97%; under setting [39], 106%; under setting [40], 107%; under setting [41], 79.3%; under setting [42], 71.1%.
